Data on 15 molecules can be found in publication PMC9951290, “Comprehensive Structure–Activity Relationship Studies of Cepafungin Enabled by Biocatalytic C–H Oxidations” (ACS Central Science, 2023).

A short description of data set [1]: Macrolactamisation of unprotected diamino acid: Lys epsilon-NH2 to vinylogous amino acid CO2H, DMTMMT (BF4 salt, 1.5 equiv), DIPEA (4 equiv); free alpha-NH2 and OH present. As to conditions: the molecule shown is the open-chain precursor, 12-membered ring, DMF, 1.0 mM, 25.0 °C.
The test system of data set [2] is RPMI 8226 cells. Kind of data set: Cytotoxicity measurement (WST-1), RPMI 8226. As to conditions: for Potency in cytotoxicity screening relative to natural product 1: RPMI 8226, 30 and 100 nM compound concentration, n = 3, Figure 4B; for EC50: Homo sapiens, RPMI 8226, 48 hours, WST-1, n = 3, read-out: Cytotoxicity EC50 (cell viability). It is filed as cell-based, human. As for the experimental part:
(§1) Cellular assays were performed on human multiple myeloma RPMI 8226 cells (Figure 4). First, relative inhibition of proteasome subunits β5 and β2 for all analogues and the natural product was measured at 30 nM compound concentration. Following incubation of the compounds in cell culture for 6 h, cells were lysed, and fluorogenic subunit-specific peptide substrates Suc-LLVY-AMC (β5) or Ac-RLR-AMC (β2) were incubated with the lysates; fluorescence readings provided relative proteasome activity levels in comparison with DMSO (Figure 4A). Next, cytotoxicity screening was performed at 30 and 100 nM concentrations for sufficient coverage of dynamic range (Figure 4B). […] Therefore, the improved cytotoxicity of phenyl cepafungin 50 likely results from a more pronounced loss of β5 function in RPMI 8226 cells. This drastic increase in proteasome inhibition may be due to π-stacking of the lipid tail phenyl ring with the β6 subunit residues Tyr106 and/or Tyr5. The β2 subunit-bound natural product has residues Tyr102 and Phe103 on the adjacent β3 subunit oriented further away from the terminal lipid methyl groups, and presumably would not facilitate π-stacking to the extent possible at the adjacent β6 subunit (see Figure 3 and Figure S4). […] These combined modifications were made in hopes that the effects of both substitutions would be additive. […] The presence of a Thr residue next to the cepafungin macrocycle appears to be favored over the ethyl side chain of desoxy-Thr analogue 44 as indicated by cytotoxicity and hydrogen-bonding seen in the cepafungin-bound crystal structure (Figures 3 and 4B).
AMC (β5) or Ac-RLR-AMC (β2). […]
Cytotoxicity Measurements
in DMSO) or DMSO and cultured for 48 hours. Toxicity was determined using the WST-1 assay
(Roche) according to the protocol of the manufacturer. (n = 3)
Figure S1. […]
On the technique in general: Formazan colour is commonly taken as a measure of viable cells.

The subject of data set [3] is Mino. In words: Cytotoxicity measurement (WST-1), Mino. As to conditions: Homo sapiens, 48 h, read-out: Cytotoxicity EC50.
Description: (§2) Cells of the indicated cell line origin were seeded in a 96-well plate (20,000 cells/well) in
(§3) cell culture media supplemented with indicated compounds at given concentrations (1,000x stock
(§4) in DMSO) or DMSO and cultured for 48 hours. Toxicity was determined using the WST-1 assay (Roche) according to the protocol of the manufacturer. (n = 3)
A further data set concerns H929. Kind of data set: Cytotoxicity measurement (WST-1), H929. As to conditions: Homo sapiens, NCI-H929, 48 h, read-out: Cytotoxicity EC50.
In another data set the test system is U266. In words: Cytotoxicity measurement (WST-1), U266. As to conditions: Homo sapiens, U-266, 48 h, read-out: Cytotoxicity EC50.
Data set [4] concerns RPMI 8226 cells. As to conditions: ∼3700 proteins quantified, 19 in common; cited from earlier work.
Another data set has as its system JeKo-1. In words: Cytotoxicity measurement (WST-1), JeKo-1. The conditions noted are these: Homo sapiens, JeKo-1, 48 h, read-out: Cytotoxicity EC50.
For another data set, the system named is MM.1S BtzR. The conditions noted are these: Cell line: MM.1S BtzR; Figure 2; cited from earlier work.
For data set [5], the system named is RPMI 8226 cells. Kind of data set: Global proteomics analysis via LC-MS/MS of RPMI 8226 cells treated with BTZ or 50 (Table S5). It is filed as cell-based, human.
Description: Finally, we evaluated the changes in global protein expression following treatment of RPMI 8226 cells with either BTZ or 50. […] Following treatment, cells were collected via centrifugation, and protein lysates were digested with trypsin and analyzed using LC-MS/MS.
Global proteomics analysis via LC-MS/MS.
RPMI 8226 cells were seeded in a 6-well plate (1,000,000 cells/well) in cell culture media supplemented with DMSO, BTZ (2.5 nM, 1000x stock in DMSO), or 50 (3 nM, 1000x stock in DMSO) for 14 h. Cells were centrifuged (3,000 x g 5 min 4°C) and washed twice with PBS. Cell pellets were resuspended in PBS and protein concentration was determined using the Bradford assay (Bio-Rad). Urea (9 M in 100 mM NH4HCO3 pH 8) was added to a final concentration of 6 M to 30 µg lysate (15 µL PBS). […] Peptides were resuspended in water with 0.1 % FA and analyzed using EASY-nLC 1200 nano-UHPLC coupled to Q Exactive HF-X Quadrupole-Orbitrap mass spectrometer (Thermo Scientific). […]
The MS data were analyzed with MaxQuant (V2.0.3.0) and searched against the human proteome (Uniprot) and a common list of contaminants (included in MaxQuant). […] The minimum peptide length was set to 6 amino acids and peptide re-quantification and “match between runs” was enabled. […]
Another data set has as its system HBL2. In words: Cytotoxicity measurement (WST-1), HBL2. The conditions noted are these: Homo sapiens, HBL2, 48 h, read-out: Cytotoxicity EC50.
For a further data set, the system named is Mino BtzR. As to conditions: Cell line: Mino BtzR; Figure 2; cited from earlier work.
In a further data set the test system is MM.1S. The conditions noted are these: Cell line: MM.1S; Figure 2; cited from earlier work.
In data set [6] the test system is RPMI 8226 cells. In words: Cytotoxicity measurement (WST-1), RPMI 8226. The data set is classed as cell-based. The conditions noted are these: Homo sapiens, 24 h; RPMI 8226, used as treatment concentration for proteomics.
The test system of data set [7] is Mino. As to conditions: Cell line: Mino; Figure 2; cited from earlier work.
Data set [8] has as its target T1, proteasome subunit β5 (Homo sapiens, UniProt P28074).
T1 construct: Following incubation of the compounds in cell culture for 6 h, cells were lysed; endogenous in cells; host or cells: RPMI 8226 (human multiple myeloma)
As to conditions: in situ in RPMI 8226 cells; preliminary analogue series, Figure 2; cited from earlier work.

In data set [9] the target is T1, proteasome subunit β5. Kind of data set: In situ β5 proteasome activity assay (Suc-LLVY-AMC) in RPMI 8226 cells. It is filed as cell-based.
Description: A preliminary series of analogues, including the natural product glidobactin A (2), were synthesized by largely the same route (Scheme 2B, Figure 2).[36] Desoxycepafungin (38) was synthesized from Boc-Lys(Boc)-OH by peptide couplings/macrocyclization to assess the role of the macrocycle hydroxylation in 1 toward proteasome inhibition. The saturated cepafungin analogue 39 was designed to address the possible role of rigidity in the tail fragment induced by the diene seen in many natural cepafungins and glidobactins. An analogue bearing unsaturation at its macrocyclic lysine was envisioned to provide a head-to-head comparison between the cepafungin and syringolin macrocyclic core. […] Proteasome subunit β5 IC50 values were determined in situ in RPMI 8226 cells. In close agreement with prior measurement of β5 IC50 for natural 1 and 2 in purified yeast proteasome,[12] in our hands the additional branching methyl in 1 indeed leads to ca. 5-fold improved IC50 compared to 2 in RPMI 8226 cells. […] Likewise, saturation of the fatty acid fragment in 39 causes ca. 14-fold decrease in β5 inhibition. This preliminary series of analogues highlighted that the macrocyclic hydroxylation, fatty acid unsaturation, and terminal lipid functionality are critical for potent proteasome inhibitory activity.
as §1, with “and 4B). […]” for “and 4B).”
Mammalian cell culture and lysate preparation
Mammalian cells were maintained in RPMI-1640 media. All media were supplemented with 10% fetal bovine serum (FBS, Life Technologies Cat# 10437028), non-essential amino acids (Sigma-Aldrich Cat# M7145) and penicillin/streptomycin (Sigma-Aldrich Cat# P4333). Cells were grown at 37 °C under 5% CO2 atmosphere. […] Cells were lysed by needle sonication to obtain cell lysates and protein concentration was determined using the […]
fluorescence was read at A360ex/A460em. […]

Where two headings read alike, the source gives them in different places.

Description for H929: as §2, §3, §4
Description for HBL2: as §2, §3, §4
Description for JeKo-1: as §2, §3, §4
Description for U266: as §2, §3, §4

With `C[C@@H](/C=C/C(=O)O)NC(=O)[C@@H](N)[C@@H](O)CCCN`, the ring closure, yield by NMR in data set [1] (36.0 h) amounted to 47%.

Turning to `CC(C)CCCCC/C=C/C=C/C(=O)N[C@H](C(=O)N[C@@H]1C(=O)N[C@@H](C)/C=C/C(=O)NCCC[C@@H]1O)[C@@H](C)O` [compound 41, 3-OH cepafungin], the “Potency in cytotoxicity screening relative to natural product 1” value in the data set on RPMI 8226 cells [2] is “nearly inactive at both concentrations”.

Consider `CC(C)CCCCC/C=C/C=C/C(=O)N[C@H](C(=O)N[C@H]1C[C@H](O)CCNC(=O)/C=C/[C@H](C)NC1=O)[C@@H](C)O` [compound 40, epi-4-OH cepafungin], for which the “Potency in cytotoxicity screening relative to natural product 1” value in the data set on RPMI 8226 cells [2] was “nearly inactive at both concentrations”.

Take `C[C@@H](/C=C/C(=O)O)NC(=O)[C@@H](N)C[C@@H](O)CCN`: the ring closure, yield by NMR in data set [1] was determined as 63%.

Broadly, the EC50 is the concentration giving half of the maximal effect. For the molecule `CC(C)C[C@H](NC(=O)[C@H](Cc1ccccc1)NC(=O)c1cnccn1)B(O)O` [bortezomib], the EC50 is 7.4 ± 0.3 nM in the data set on Mino [3]; 1.5 ± 0.2 nM in the data set with H929; 3.1 ± 0.1 nM in the data set on U266; 7 ± 0.5 nM in the data set with JeKo-1; 28 ± 0.6 nM with MM.1S BtzR; 2.5 ± 0.4 nM in the data set on HBL2. Moreover, the EC50 with Mino BtzR is 23 ± 1.1 nM; in the data set on RPMI 8226 cells [2], 2.2 ± 0.1 nM; in the data set on MM.1S, 2.3 ± 0.03 nM; in the data set on RPMI 8226 cells [6] it was 2.5 nM; in the data set on Mino [7] it was 10 ± 0.4 nM. Besides, in the data set on RPMI 8226 cells [4], the “number of proteins upregulated compared to DMSO control” value is given as 25 proteins. Besides, the “overlap of upregulated proteins commonly affected by BTZ and 50” value in the data set with RPMI 8226 cells [5] (17 common proteins) was 59%. Further, the “number of proteins with statistically significant increase in expression” value in the data set on RPMI 8226 cells [5] (RPMI 8226, 14 h, 2.5 nM BTZ or 3 nM 50 vs DMSO, out of 4080 quantified, FDR 5%, S0 0.1) came out at 29 proteins.

As for `C[C@@H](/C=C/C(=O)O)NC(=O)[C@@H](N)C[C@H](O)CCN`, the ring closure, yield by NMR in data set [1] (36.0 h) came to 59%.

Take `CC(C)[C@@H](/C=C/C(=O)O)NC(=O)[C@@H](N)C[C@@H](O)CCN`: the ring closure, yield by NMR in data set [1] (36.0 h) amounted to 47%.

For the molecule `CCCCCCCCCCCCNC(=O)N[C@H](C(=O)N[C@H]1/C=C/CCNC(=O)/C=C/[C@H](C)NC1=O)C(C)C` [compound 37, TIR-199], the 50% effective concentration (EC50) with MM.1S BtzR was 81 ± 5.8 nM; in the data set on Mino BtzR it was 130 ± 2 nM; with MM.1S, 48 ± 8.7 nM; in the data set with Mino [7], 64 ± 2.1 nM.

Turning to `CC(C)[C@H]1/C=C/C(=O)NCC[C@H](O)C[C@H](NC(=O)[C@@H](NC(=O)/C=C/C=C/CCCCCc2ccccc2)[C@@H](C)O)C(=O)N1` [S39], the EC50 in the data set on RPMI 8226 cells [2] is 4.5 nM.

On to `CC(C)CCCCC/C=C/C=C/C(=O)N[C@H](C(=O)N[C@H]1CC(=O)CCNC(=O)/C=C/[C@H](C)NC1=O)[C@@H](C)O` [compound 42, keto cepafungin], for which the “Potency in cytotoxicity screening relative to natural product 1” value with RPMI 8226 cells [2] is recorded as “potency approaching that of the natural product”.

As to `CC(C)CCCCC/C=C/C=C/C(=O)N[C@H](C(=O)N[C@H]1C[C@@H](O)CCNC(=O)/C=C/[C@H](C(C)C)NC1=O)[C@@H](C)O` [compound 43, valinyl cepafungin], in the data set with RPMI 8226 cells [2], the “Potency in cytotoxicity screening relative to natural product 1” value was “more potent than the parent natural product 1”.

A word on the IC50: it is the concentration needed to halve the response being measured. Regarding `CCCCCCC/C=C/C=C/C(=O)N[C@H](C(=O)N[C@H]1C[C@@H](O)CCNC(=O)/C=C/[C@H](C)NC1=O)[C@@H](C)O` [compound 2, glidobactin A], the IC50 at proteasome subunit β5 [8] is 77 ± 5 nM.

In the case of `CC(C)CCCCCCCCCC(=O)NC(C(=O)NC1CC(O)CCNC(=O)C=CC(C)NC1=O)C(C)O` (stereo not drawn) [compound 39], the “fold decrease in β5 inhibition on saturation of the fatty acid fragment” value at proteasome subunit β5 [9] (39 versus 1, RPMI 8226 cells) is recorded as “ca. 14 fold”. Also, the IC50 at proteasome subunit β5 [8] is 219 ± 11 nM.

On to `C[C@@H](/C=C/C(=O)O)NC(=O)[C@@H](N)CC(=O)CCN`, for which, in data set [1] (36.0 h), the ring closure, yield by NMR was 51%.

For `CC(C)CCCCC/C=C/C=C/C(=O)N[C@H](C(=O)N[C@H]1CCCCNC(=O)/C=C/[C@H](C)NC1=O)[C@@H](C)O` [compound 38, Desoxycepafungin], the “fold higher IC50 than 1” value on proteasome subunit β5 [9] (β5, RPMI 8226 cells) is “ca. 11 fold”. In addition, at proteasome subunit β5 [8], the IC50 is 184 ± 29 nM.
